# Experiments:
# [1] = tested on: latency to fall; assay: Rotorod test; type: in vivo, mouse; conditions: mice, vehicle 140±13 sec
# [2] = estimated from the literature ref Yang et al., 2003, Nicholson et al., 2007; cited from earlier work
# [3] = biological target: rat GluN1-1a/GluN2B receptors (Rattus norvegicus, UniProt P35439+Q00960); conditions: Table S6 ref Mott et al., 1998; cited from earlier work
# [4] = tested on: horizontal locomotor activity; assay: Locomotor activity; type: in vivo, rat; conditions: at high doses IP; rats; cumulative 2 hr
# Chain of rat GluN1-1a/GluN2B receptors (Q00960 27-1482, other chains not shown): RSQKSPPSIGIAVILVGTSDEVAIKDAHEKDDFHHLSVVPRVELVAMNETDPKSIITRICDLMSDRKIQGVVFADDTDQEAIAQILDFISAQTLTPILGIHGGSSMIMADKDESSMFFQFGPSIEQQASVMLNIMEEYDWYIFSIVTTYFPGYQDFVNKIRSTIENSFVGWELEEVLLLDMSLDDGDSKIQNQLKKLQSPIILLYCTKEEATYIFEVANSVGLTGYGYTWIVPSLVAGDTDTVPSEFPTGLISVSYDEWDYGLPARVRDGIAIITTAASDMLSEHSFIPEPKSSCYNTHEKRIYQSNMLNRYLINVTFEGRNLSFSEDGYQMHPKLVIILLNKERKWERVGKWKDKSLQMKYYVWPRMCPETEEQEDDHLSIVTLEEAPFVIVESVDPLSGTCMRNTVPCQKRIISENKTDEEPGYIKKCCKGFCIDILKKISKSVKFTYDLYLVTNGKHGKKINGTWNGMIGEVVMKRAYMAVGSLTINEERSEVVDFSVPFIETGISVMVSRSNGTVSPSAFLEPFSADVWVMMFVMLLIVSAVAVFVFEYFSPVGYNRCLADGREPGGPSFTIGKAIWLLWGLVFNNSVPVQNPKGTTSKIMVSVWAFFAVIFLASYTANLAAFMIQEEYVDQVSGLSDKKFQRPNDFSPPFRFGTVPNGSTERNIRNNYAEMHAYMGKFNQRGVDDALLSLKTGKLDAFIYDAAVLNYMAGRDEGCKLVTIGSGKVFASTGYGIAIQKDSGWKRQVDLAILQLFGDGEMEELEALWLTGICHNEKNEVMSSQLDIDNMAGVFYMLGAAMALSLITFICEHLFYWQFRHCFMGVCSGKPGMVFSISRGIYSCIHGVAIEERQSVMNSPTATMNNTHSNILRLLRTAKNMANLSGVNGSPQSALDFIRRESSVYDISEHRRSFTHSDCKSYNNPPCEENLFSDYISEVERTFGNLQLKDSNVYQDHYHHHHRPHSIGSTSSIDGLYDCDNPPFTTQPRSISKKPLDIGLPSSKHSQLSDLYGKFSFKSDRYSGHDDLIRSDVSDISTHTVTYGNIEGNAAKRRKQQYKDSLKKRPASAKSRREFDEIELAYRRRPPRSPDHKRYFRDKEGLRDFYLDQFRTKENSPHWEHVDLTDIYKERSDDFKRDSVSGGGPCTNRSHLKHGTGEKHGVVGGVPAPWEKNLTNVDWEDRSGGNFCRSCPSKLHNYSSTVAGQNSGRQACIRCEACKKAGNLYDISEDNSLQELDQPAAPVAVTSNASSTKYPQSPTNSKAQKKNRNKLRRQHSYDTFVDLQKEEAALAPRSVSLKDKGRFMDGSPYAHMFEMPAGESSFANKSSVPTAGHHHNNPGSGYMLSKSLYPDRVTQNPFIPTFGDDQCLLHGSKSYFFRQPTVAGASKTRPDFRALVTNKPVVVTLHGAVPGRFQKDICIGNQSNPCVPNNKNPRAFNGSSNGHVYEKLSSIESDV
compound,measurement,setting,value
(+)MK-801,rotorod latency to fall,[1]; 0.6 mg/kg IP,3 ± 2 s
"C[C@@H]([C@@H](O)c1ccc(O)cc1)N1CCC(O)(c2ccccc2)CC1 [CP-101,606]",therapeutic ratio (TR) for neuroprotection,[2],~ 4
same,pH sensitivity of inhibition,[3],lack substantial pH sensitivity
CC(C(O)c1ccc(O)cc1)N1CCC(Cc2ccccc2)CC1 (centres unmarked) [ifenprodil],rotorod latency to fall,[1]; 30 mg/kg IP,35 ± 6 s
same,effect on locomotor activity,[4],reduced

# Reference: PMC4368485 (Neuron, 2015)
